Series [1] is described as follows: Rat pharmacokinetic study (iv clearance, oral exposure). Format: in vivo. The settings on record: for Rat iv CI: in vivo clearance, average of 1 to 4 animals; for Rat po DNAUC: dose-normalized AUC, 2-3 animals per experiment. How it is done:
(§1) Mouse and rat pharmacokinetic studies were performed generally as described in Xiang et al. (Preclinical drug metabolism and pharmacokinetic evaluation of GW844520, a novel mitochondrial electron transport inhibitor. H Xiang, J McSurdy-Freed, G Subbanagounder, E Hugger, R Bambal, C Han, S Ferrar, D Gargallo and CB Davis. (2006) Journal of Pharmaceutical Sciences, 95:2657-2672) and Davis et al. (Comparative preclinical drug metabolism and pharmacokinetic evaluation of novel 4-aminoquinoline anti-malarials. C B Davis, R Bambal, G S Moorthy, E Hugger, H Xiang, B Kevin Park, A E Shone, P M O'Neill and S A Ward (2009) Journal of Pharmaceutical Sciences, 98:362-377) with the following exceptions. For some mouse studies, cannulated animals were used and serial blood samples were collected from the individuals (n=2/compound/route of administration) as opposed to using a composite study design. In some iv rat studies, drugs were infused for 1 or 2 h and a single blood sample collected to estimate clearance assuming steady-state conditions (n=2/compound). This assay was employed as an initial PK screen to prioritize compounds for further study.
(§2) Rodent pharmacokinetic (PK) data were collected on the exemplified compounds according to the methods described above. In vivo clearance (Cl) data are reported as the average of 1 to 4 animals across 1 to 2 experiments and are categorized as follows. In rats, a ‘low’ clearance is designated as <17 mL/min/kg, a ‘moderate’ clearance is designated as 17-39 mL/min/kg, and a ‘high’ clearance is designated as >39 mL/min/kg. In mice, a ‘low’ clearance is designated as <30 mL/min/kg, a ‘moderate’ clearance is designated as 30-70 mL/min/kg, and a ‘high’ clearance is designated as >70 mL/min/kg. In vivo oral exposure (po) data, reported as average dose-normalized AUCs (DNAUC) per experiment of 2-3 animals, are categorized as ‘poor’ for DNAUC ≦101 ng·h/mL/mg/kg and ‘good’ for DNAUC >101 ng·h/mL/mg/kg. When multiple experiments were performed under different conditions, the totality of the data was considered. In cases where both ‘poor’ and ‘good’ oral exposures were observed, a designation of ‘mixed’ is utilized to represent mixed and unoptimized results.

A short description of series [2]: Mouse pharmacokinetic study (iv clearance, oral exposure). It counts as in vivo. Further details: key to Mouse po DNAUC: ‘poor’ for DNAUC ≦101 ng·h/mL/mg/kg; ‘good’ for DNAUC >101 ng·h/mL/mg/kg; In cases where both ‘poor’ and ‘good’ oral exposures were observed, a designation of ‘mixed’ is utilized. The following applies: for Mouse iv CI: in vivo clearance, average of 1 to 4 animals; for Mouse po DNAUC: dose-normalized AUC, 2-3 animals per experiment. The method, then: as §1, §2

Take `O=C(C1CC1)N1CC[C@@H](Cc2n[nH]c(=O)n2-c2ccc(-c3ccc4cccnc4c3)cc2F)C1` [#124 from WO2011/103546A1, 5-{[(3S)-1-(cyclopropylcarbonyl)-3-pyrrolidinyl]methyl}-4-[2-fluoro-4-(7-quinolinyl)phenyl]-2,4-dihydro-3H-1,2,4-triazol-3-one, reference compound]: in series [1], the “Rat iv CI” value is listed as “high (a ‘high’ clearance is designated as >39 mL/min/kg)” and the “Rat po DNAUC” value is “poor (‘poor’ for DNAUC ≦101 ng·h/mL/mg/kg)”. In addition, in series [2], the “Mouse iv CI” value is given as “moderate (a ‘moderate’ clearance is designated as 30-70 mL/min/kg)” and the “Mouse po DNAUC” value is on record as “poor (‘poor’ for DNAUC ≦101 ng·h/mL/mg/kg)”.

As for `CCC(=O)N1CC[C@@H](Cc2n[nH]c(=O)n2-c2ccc(-c3ccc4cccnc4c3)cc2F)C1` [#196 from WO2011/103546A1, 4-[2-fluoro-4-(7-quinolinyl)phenyl]-5-{[(3S)-1-propanoyl-3-pyrrolidinyl]methyl}-2,4-dihydro-3H-1,2,4-triazol-3-one, reference compound], in series [1], the “Rat iv CI” value is “moderate (a ‘moderate’ clearance is designated as 17-39 mL/min/kg)” and the “Rat po DNAUC” value is given as “poor (‘poor’ for DNAUC ≦101 ng·h/mL/mg/kg)”. Besides, in series [2], the “Mouse iv CI” value is listed as “moderate (a ‘moderate’ clearance is designated as 30-70 mL/min/kg)” and the “Mouse po DNAUC” value is listed as “poor (‘poor’ for DNAUC ≦101 ng·h/mL/mg/kg)”.

Regarding `Cc1cnc2cc(-c3ccc(-n4c(C[C@@H]5CCN(C(=O)C6CC6)C5)n[nH]c4=O)c(F)c3)ccc2c1` [Example 1, (S)-3-((1-(cyclopropanecarbonyl)pyrrolidin-3-yl)methyl)-4-(2-fluoro-4-(3-methylquinolin-7-yl)phenyl)-1H-1,2,4-triazol-5(4H)-one], in series [1], the “Rat iv CI” value is on record as “moderate (a ‘moderate’ clearance is designated as 17-39 mL/min/kg)” and the “Rat po DNAUC” value is recorded as “poor (‘poor’ for DNAUC ≦101 ng·h/mL/mg/kg)”. Moreover, in series [2], the “Mouse iv CI” value is on record as “low (In mice, a ‘low’ clearance is designated as <30 mL/min/kg)” and the “Mouse po DNAUC” value was “good (‘good’ for DNAUC >101 ng·h/mL/mg/kg)”.

For the compound `O=C(C1CC1)N1CC[C@@H](Cc2n[nH]c(=O)n2-c2ccc(-c3ccc4cc(Cl)cnc4c3)cc2F)C1` [Example 2, (S)-4-(4-(3-chloroquinolin-7-yl)-2-fluorophenyl)-3-((1-(cyclopropanecarbonyl)pyrrolidin-3-yl)methyl)-1H-1,2,4-triazol-5(4H)-one], in series [1], the “Rat iv CI” value is “moderate (a ‘moderate’ clearance is designated as 17-39 mL/min/kg)” and the “Rat po DNAUC” value was “good (‘good’ for DNAUC >101 ng·h/mL/mg/kg)”. In addition, in series [2], the “Mouse iv CI” value was “low (In mice, a ‘low’ clearance is designated as <30 mL/min/kg)” and the “Mouse po DNAUC” value was “good (‘good’ for DNAUC >101 ng·h/mL/mg/kg)”.

Turning to `O=C(C1CC1)N1CC[C@@H](Cc2n[nH]c(=O)n2-c2ccc(-c3ccc4cc(F)cnc4c3)cc2F)C1` [Example 3, (S)-3-((1-(cyclopropanecarbonyl)pyrrolidin-3-yl)methyl)-4-(2-fluoro-4-(3-fluoroquinolin-7-yl)phenyl)-1H-1,2,4-triazol-5(4H)-one], the “Rat iv CI” value in series [1] is “moderate (a ‘moderate’ clearance is designated as 17-39 mL/min/kg)”.

`CCC(=O)N1CC[C@@H](Cc2n[nH]c(=O)n2-c2ccc(-c3ccc4cc(F)cnc4c3)cc2F)C1` [Example 4, (S)-4-(2-fluoro-4-(3-fluoroquinolin-7-yl)phenyl)-3-((1-propionylpyrrolidin-3-yl)methyl)-1H-1,2,4-triazol-5(4H)-one]: in series [1], the “Rat iv CI” value is “low (In rats, a ‘low’ clearance is designated as <17 mL/min/kg)” and the “Rat po DNAUC” value is “poor (‘poor’ for DNAUC ≦101 ng·h/mL/mg/kg)”. In series [2], the “Mouse iv CI” value is “low (In mice, a ‘low’ clearance is designated as <30 mL/min/kg)” and the “Mouse po DNAUC” value is listed as “good (‘good’ for DNAUC >101 ng·h/mL/mg/kg)”.

For the compound `CCC(=O)N1CC[C@@H](Cc2n[nH]c(=O)n2-c2ccc(-c3ccc4cc(C)cnc4c3)cc2F)C1` [Example 5, (S)-4-(2-fluoro-4-(3-methylquinolin-7-yl)phenyl)-3-((1-propionylpyrrolidin-3-yl)methyl)-1H-1,2,4-triazol-5(4H)-one], in series [1], the “Rat iv CI” value is given as “low (In rats, a ‘low’ clearance is designated as <17 mL/min/kg)” and the “Rat po DNAUC” value is on record as “good (‘good’ for DNAUC >101 ng·h/mL/mg/kg)”. Moreover, in series [2], the “Mouse iv CI” value is given as “low (In mice, a ‘low’ clearance is designated as <30 mL/min/kg)” and the “Mouse po DNAUC” value is “mixed”.

As for `CCC(=O)N1CC[C@@H](Cc2n[nH]c(=O)n2-c2ccc(-c3ccc4cc(Cl)cnc4c3)cc2F)C1` [Example 6, (S)-4-(4-(3-chloroquinolin-7-yl)-2-fluorophenyl)-3-((1-propionylpyrrolidin-3-yl)methyl)-1H-1,2,4-triazol-5(4H)-one], in series [1], the “Rat iv CI” value is “moderate (a ‘moderate’ clearance is designated as 17-39 mL/min/kg)” and the “Rat po DNAUC” value was “good (‘good’ for DNAUC >101 ng·h/mL/mg/kg)”. For the same compound, in series [2], the “Mouse iv CI” value is “low (In mice, a ‘low’ clearance is designated as <30 mL/min/kg)” and the “Mouse po DNAUC” value was “mixed”.

As to `CCC(=O)N1CC[C@@H](Cc2nn(C)c(=O)n2-c2ccc(-c3ccc4cc(C)cnc4c3)cc2F)C1` [Example 7, (S)-4-(2-fluoro-4-(3-methylquinolin-7-yl)phenyl)-1-methyl-3-((1-propionylpyrrolidin-3-yl)methyl)-1H-1,2,4-triazol-5(4H)-one], in series [1], the “Rat iv CI” value is listed as “low (In rats, a ‘low’ clearance is designated as <17 mL/min/kg)” and the “Rat po DNAUC” value is “good (‘good’ for DNAUC >101 ng·h/mL/mg/kg)”. Also, in series [2], the “Mouse iv CI” value is listed as “low (In mice, a ‘low’ clearance is designated as <30 mL/min/kg)” and the “Mouse po DNAUC” value is on record as “good (‘good’ for DNAUC >101 ng·h/mL/mg/kg)”.

For `CCC(=O)N1CC[C@@H](Cc2nn(C)c(=O)n2-c2ccc(-c3ccc4cc(Cl)cnc4c3)cc2F)C1` [Example 8, (S)-4-(4-(3-chloroquinolin-7-yl)-2-fluorophenyl)-1-methyl-3-((1-propionylpyrrolidin-3-yl)methyl)-1H-1,2,4-triazol-5(4H)-one], in series [1], the “Rat iv CI” value is “low (In rats, a ‘low’ clearance is designated as <17 mL/min/kg)” and the “Rat po DNAUC” value was “good (‘good’ for DNAUC >101 ng·h/mL/mg/kg)”. Also, in series [2], the “Mouse iv CI” value is “low (In mice, a ‘low’ clearance is designated as <30 mL/min/kg)” and the “Mouse po DNAUC” value is listed as “good (‘good’ for DNAUC >101 ng·h/mL/mg/kg)”.

With `Cn1nc(C[C@@H]2CCN(C(=O)C3CC3)C2)n(-c2ccc(-c3ccc4cc(Cl)cnc4c3)cc2F)c1=O` [Example 9, (S)-4-(4-(3-chloroquinolin-7-yl)-2-fluorophenyl)-3-((1-(cyclopropanecarbonyl)pyrrolidin-3-yl)methyl)-1-methyl-1H-1,2,4-triazol-5(4H)-one], in series [1], the “Rat iv CI” value is listed as “moderate (a ‘moderate’ clearance is designated as 17-39 mL/min/kg)” and the “Rat po DNAUC” value is given as “good (‘good’ for DNAUC >101 ng·h/mL/mg/kg)”. For the same compound, the “Mouse iv CI” value in series [2] is “low (In mice, a ‘low’ clearance is designated as <30 mL/min/kg)”.

Consider `CCC(=O)N1CC[C@@H](Cc2nn(C)c(=O)n2-c2ccc(-c3ccc4cc(F)cnc4c3)cc2F)C1` [Example 10, (S)-4-(2-fluoro-4-(3-fluoroquinolin-7-yl)phenyl)-1-methyl-3-((1-propionylpyrrolidin-3-yl)methyl)-1H-1,2,4-triazol-5(4H)-one], for which the “Rat iv CI” value in series [1] is “low (In rats, a ‘low’ clearance is designated as <17 mL/min/kg)”. In series [2], the “Mouse iv CI” value is “low (In mice, a ‘low’ clearance is designated as <30 mL/min/kg)”.

The values above are taken from patent US9725437B2, “Fatty acid synthase inhibitors” (GlaxoSmithKline Intellectual Property (No.2) Limited, priority 2013, dated 2017).
